Measured values reported in the NIST ThermoML archive (doi:10.1016/j.fluid.2008.01.004).
Numbers after ± are expanded uncertainties.

Columns and labels:
[1] = mn = molality of the nth substance listed, in mol/kg; conditions: 283.15 K; 101 kPa; Liquid; m2 = 0
[2] = wn = mass fraction of the nth substance listed; conditions: 101 kPa, Liquid; for speed of sound: Sing-around technique in a fixed-path interferometer

O [water] + O=P([O-])([O-])[O-].[Na+].[Na+].[Na+]
mass density [1]: 999.699 ± 0.26 kg/m3

CCCO [propan-1-ol] + O
speed of sound ([2]; 283.15 K, w1 = 0.05): 1499 ± 1.1 m/s
speed of sound ([2]; 283.15 K, w1 = 0.1): 1548.6 ± 1.1 m/s
speed of sound ([2]; 283.15 K, w1 = 0.15): 1585.2 ± 1.1 m/s
mass density ([2]; 283.15 K, w1 = 0.05): 992.405 ± 0.29 kg/m3
mass density ([2]; 283.15 K, w1 = 0.1): 987.187 ± 0.29 kg/m3
mass density ([2]; 283.15 K, w1 = 0.15): 982.892 ± 0.3 kg/m3
speed of sound ([2]; 288.15 K, w1 = 0.05): 1512.2 ± 1.1 m/s
speed of sound ([2]; 288.15 K, w1 = 0.1): 1556.5 ± 1.1 m/s
speed of sound ([2]; 288.15 K, w1 = 0.15): 1587.6 ± 1.1 m/s
mass density ([2]; 288.15 K, w1 = 0.05): 991.687 ± 0.31 kg/m3
mass density ([2]; 288.15 K, w1 = 0.1): 986.194 ± 0.29 kg/m3
mass density ([2]; 288.15 K, w1 = 0.15): 981.496 ± 0.31 kg/m3
speed of sound ([2]; 293.15 K, w1 = 0.05): 1523.9 ± 1.1 m/s
speed of sound ([2]; 293.15 K, w1 = 0.1): 1563.3 ± 1.1 m/s
speed of sound ([2]; 293.15 K, w1 = 0.15): 1589 ± 1.1 m/s
mass density ([2]; 293.15 K, w1 = 0.05): 990.671 ± 0.31 kg/m3
mass density ([2]; 293.15 K, w1 = 0.1): 984.913 ± 0.29 kg/m3
mass density ([2]; 293.15 K, w1 = 0.15): 979.828 ± 0.31 kg/m3
speed of sound ([2]; 298.15 K, w1 = 0.05): 1533.8 ± 1.1 m/s
speed of sound ([2]; 298.15 K, w1 = 0.1): 1568.7 ± 1.1 m/s
speed of sound ([2]; 298.15 K, w1 = 0.15): 1589.2 ± 1.1 m/s
mass density ([2]; 298.15 K, w1 = 0.05): 989.387 ± 0.31 kg/m3
mass density ([2]; 298.15 K, w1 = 0.1): 983.372 ± 0.29 kg/m3
mass density ([2]; 298.15 K, w1 = 0.15): 977.921 ± 0.31 kg/m3
speed of sound ([2]; 303.15 K, w1 = 0.05): 1542.2 ± 1.1 m/s
speed of sound ([2]; 303.15 K, w1 = 0.1): 1572.9 ± 1.1 m/s
speed of sound ([2]; 303.15 K, w1 = 0.15): 1588.6 ± 1.1 m/s
mass density ([2]; 303.15 K, w1 = 0.05): 987.86 ± 0.29 kg/m3
mass density ([2]; 303.15 K, w1 = 0.1): 981.595 ± 0.29 kg/m3
mass density ([2]; 303.15 K, w1 = 0.15): 975.791 ± 0.31 kg/m3
